From patent US9044527B2, “Wound care products with peracid compositions” (CHD Bioscience, Inc., priority 2011, dated 2015)

Legend:
[1] = system: methicillin resistant staphylococcus aureus (MRSA); test: MRSA streaked blood agar plate treated with PPA film discs (simulated MIC test); type: cell-based; settings: 6 mm film discs made with 100 ppm and 1000 ppm PPA compound, incubated overnight
Text: This bulk film material illustrated in the drawings can be easily fit between layers of dressing or gauze and protected from the moisture in the bandage. […] To test efficacy and stability of the incorporated PPA compound, six millimeter discs were cut out of the PPA treated matrices and placed onto a methicillin resistant staphylococcus aureus (MRSA) streaked blood agar plate. […] This method simulated the well-known minimum inhibitory concentration (MIC) test. The blood agar plates were incubated overnight at optimal temperature and then observed for microbial kill.
The control film disc was the diameter of the grown of the 1000 ppm disc. The discs were placed on the blood agar plate and were dissolved by the moisture from the agar which allowed the PPA compound to migrate out of the film. […] Thus the 1000 ppm ratio of ppm concentration to the circle of kill diameter was greater than for the 100 ppm concentration to the circle diameter in millimeters.

[2] = system: e. coli 25922; test: Kirby-Bauer growth inhibition (disk diffusion) assay; type: cell-based; settings: 10 μg gentamicin disc, 6 mm, 16-18 hours
Procedure: Kirby-Bauer growth inhibition (or disk diffusion susceptibility testing) is used to quantify the efficiency of antibiotics and/or to test the sensitivity of particular rapidly growing bacteria to an antibiotic.
A bacterial inoculum was prepared from log-phase cultures (ATCC e. coli 25922) to a standard density (approximately 1×10^8 CFU/ml, which is equivalent to a 0.5 McFarland turbidity). The inoculum was applied to a culture dish with Muller-Hinton nutrient agar.
Dissolvable thin film biocide preparations were prepared as Examples 1 or 3, but the spiked biocide was used at an original film-pour concentration of 20,000 ppm (recall that when the film-pour dries, it loses approximately 16-25× of its weight through solvent evaporation, and thus the final concentration of the biocide is much higher than the film-pour, although some is lost through evaporation as evidenced by the acetic acid smell during dry-down).
Samples of hydrogel (single FT cycle) were also used in some experiments where spiked biocide films were applied to the hydrogel surface and the bi-layer sample applied to the culture surface.
At the time of infection, test materials are applied to the surface of the agar. After a growth a 35-37° C. in air, for period of 16-18 hours, the diameter of the zone of inhibited bacteria growth can be visualized and measured with calipers. […]

[3] = system: e. coli 25922; settings: 10 μg gentamicin disc, 6 mm; cited from earlier work

Compound	kill of MRSA (circle of kill diameter) [1]	control zone inhibition diameter [2]	zone inhibition diameter, published quality-control data [3]
CC(=O)C(=O)OO [PPA compound, peroxy pyruvic acid]	in proportion to the PPA concentration in the disc		
gentamicin [Sensi-Disc]		agrees with published quality-control data	19-26 mm
